Measurements published in patent US7851473B2, “Amide compound” (Takeda Pharmaceutical Company Limited, priority 2004, dated 2010).

Tested on: rat local cerebral ischemic model
Test: Cerebroprotective effect in a rat cerebral ischemic model (middle cerebral artery occlusion)
Type: in vivo
Conditions: SD rats, 120 minutes occlusion; intravenous, immediately after reperfusion and after 2, 4 and 6 hours; measured two days after ischemia; p<0.05
Method: The compound obtained in Example 1 as an FAAH inhibitory agent (hereinafter, referred to as Compound A) was administered intravenously to a rat local cerebral ischemic model, and the inhibitory effect of the compound on cerebral infarct volume was examined. For the cerebral ischemic model, 8 weeks-old male SD rats (CLEA Japan, Inc.) were used to generate a middle cerebral artery occlusion model (Kiyota, et al., Experimental Brain Research, 95, 388-396 (1993)). That is, under halothane anesthesia, a silicone-coated plug was inserted into the rat from the right common carotid artery to the origin of middle cerebral artery to induce occlusion for 120 minutes. Compound A of Example was intravenously administered immediately after reperfusion and after 2, 4 and 6 hours, respectively. Two days after the ischemia treatment, the rat brain was extracted, 2 mm-thick slices of anterior maxillary section were prepared therefrom, and the cerebral infarct volume was measured from their TTC-stained images by image analysis.

O=C(Nc1noc2ccccc12)N1CCN(c2nc(-c3ccccc3)ns2)CC1 [Compound A]
cerebral infarct volume compared with the solvent-administered group: significantly smaller
